Legend:
Caco-2 cell monolayers [1] = assay: Caco-2 cell transport assay (Papp, efflux ratio); details: Caco-2 monolayers
Experimental: (§1) The Center of Cellular Resources at the Chinese Academy of Sciences (Shanghai, China) provided the human colon adenocarcinoma cell line Caco-2, and the experiment utilized 15–30 generations of these cells. DMEM enriched with 15% FBS, 1% non-essential amino acids, 1% Penicillin-Streptomycin Solution (×100), and 1% sodium pyruvate was utilized to cultivate cells at 37°C in a humidified atmosphere of 5% CO2. The cells were separated from flasks when they achieved the anticipated confluence threshold (70%–80%), and they were then inoculated in 12-well plates at a density of 2–5 × 10^5 cells/cm^2 in a polycarbonate Transwell® (pore size: 0.4 µm; filter area: 1.12 cm^2). In the first week, the culture media was switched every 2 days.
(§2) Caco-2 monolayers were pre-cultured in HBSS for 15 min at 37°C after being rinsed two times with preheated Hanks' balanced salt solution (HBSS, pH = 7.4). The donor side was supplemented with DEDM (25, 50, and 100 μM) and EDM (2.5, 5, and 10 μM), and the receiver chamber was filled with the corresponding volume of HBSS medium. For 120 min, the plate was incubated at 37°C. At 0, 30, 45, 60, 90, and 120 min, a 0.5 mL aliquot of each receiver chamber’s sample was taken, and 0.5 mL of HBSS was added to keep the volume constant. By using high-performance liquid chromatography (HPLC), the samples were examined. The sample (300 μL) taken from the receiver chamber was mixed with 300 μL of acetonitrile, and the combination was centrifuged for 10 min at 13,000 rpm. Lastly, a 100 µL aliquot of the supernatant was injected into the HPLC for examination.
(§3) Two drugs were quantitatively determined using an Agilent 1,260 HPLC apparatus (United States). A C18 column (1.8 μm, 3.0 × 150 mm; Agilent Technologies, Santa Clara, CA, United States) was used for the separation, with a column temperature of 25°C. The mobile phase comprised both A (water) and B (acetonitrile). The ratio between A and B was 70: 30 with a flow rate of 1 mL per minute. For EDM or DEDM, 20 μL samples were injected and analyzed at 290 nm or 344 nm, respectively. Acetonitrile was used to create the standard stock solutions for EDM and DEDM, respectively. By serially diluting standard stock solutions with HBSS, working solutions were made. The effective concentrations were 0.04–2.5 μg/mL for EDM and 0.23–7.5 μg/mL for DEDM, respectively. These samples were stored at 4°C before being used.
(§4) Eqs 1, 2 were used to determine the apparent permeability coefficients (Papp) and efflux ratio (ER) of marker drugs: Papp=dQ/dtC0A (1) where dQ/dt is the cumulative transport rate (M/min), C0 is the initial concentration of each marker drug, and A is the surface area of the filters. ER=PappBL−AP/PappAP−BL (2)
(§5) Data for transport experiments are presented as the mean ± SD of six independent experiments.

Caco-2 cells = assay: Cell viability assay (MTT), nontoxic concentration; type: cell-based, human; details: 48 h
Experimental: The cytotoxicity of EDM and DEDM was assessed in Caco-2 cells using the aforementioned MTT test. These alkaloids were produced as solutions in DMSO and then diluted in cell culture media. Inoculating Caco-2 cells (1 × 10^4cells/well) in 96-well plates with 200 μL of media. After additional 48 h of incubation with EDM and DEDM (final test alkaloids concentrations ranged from 0.4 to 200 μM, and DMSO was less than 0.05%), the medium was discarded. To each well, an aliquot of 190 μL freshly prepared DMEM (serum-free) having 10.0 μL MTT (5 mg/mL) was added. The medium in every well was then removed from the plate after a further 4 h at 37°C of incubation. In 100 μL of DMSO, the purple formazan product was dissolved. Using a microplate reader, the ratio of absorbance (treated to untreated cells) at 490 nm was employed to measure cell viability.

Caco-2 cell monolayers [2] = details: pH 7.4
Experimental: as §1, §2, §3, §4, §5

in vitro = details: human, Caco-2, pH 7.4
Experimental: as §1, §2, §3, §4, §5

[3] = parameters: method as in Lin et al., 2012; details: ref Lin et al., 2012; cited from earlier work
[4] = Tissue distribution and PK after tail vein injection; type: in vivo, mice
Experimental: The mixture was then transferred to a sterile centrifuge tube after being repeatedly ground for 30 min with a tiny amount of ordinary saline added. After that, saline was added and ultrasonically processed for 1 h. In a vacuum freeze drier, the suspension was freeze-dried for 30 h. To make the injection, the freeze-dried powder was ultimately redissolved in regular saline. After acclimatization, all mice were acclimated before being randomly placed into four groups of three each: EDM (H) group, EDM (L) group, DEDM (H) group, DEDM (L) group. […] Supernatant plasma from the collected sample was transferred into another tube and kept at −80°C until analysis after being centrifuged at 3,000 rpm for 10 min. Immediately after blood was obtained, the mice were dissected. Saline was injected into the heart until the liver turned white. […] The calibration standards, tissue samples, and plasma samples were pretreated with acetonitrile for protein precipitation. […] To remove the denatured protein, the mixture was vortexed for 1 min and then centrifuged at 16,500 rpm for 10 min. The supernatant was finally injected into the LC-MS/MS in an aliquot of 100 µL for analysis. […] Using an isocratic elution, the EDM and DEDM were analyzed. […] With a flow rate of 0.3 mL/min, the ratio between A and B was 20: 80 for 4 min. The column temperature was kept at 35°C. Prior to injection, samples were transferred in an auto-sampler at a temperature of 4°C and 5 µL was the injection volume. […] The ion source was electrospray ionization (ESI) and adopts positive ion mode. The scan mode was multiple reaction monitoring (MRM). The operating conditions for the EDM and DEDM were 4000 V capillary voltage. […] Acetonitrile was used to prepare standard stock solutions for each type of EDM and DEDM individually. By diluting the standard stock solutions serially with acetonitrile, working standards for the EDM and DEDM were made. The calibration curve samples were acquired by spiking the series working standard solutions (10 μL) into a tube and evaporating the solvent, and then adding blank mouse tissue homogenate or plasma (100 μL). […] DEDM is used as an internal standard compound when detecting EDM. Meanwhile, when DEDM is detected, EDM is used as the internal standard compound. The final concentration of the internal standard compound is 10 ng/mL. […] For the Non-compartmental PK analysis, Thermo Kinetica (Version 5.0, Thermo Electron Corporation, Waltham, MA) was employed. Based on observed data, the time when the maximum tissue concentration was reached (Tmax) and the maximum tissue concentration (Cmax) were assessed. […] Additionally, the mean residence time (MRT) was computed. PK parameters are reported as the mean of […]. Linear and non-linear regressions were analyzed in Microsoft Excel 2016® (United States).

Row | SMILES | bidirectional transport comparison, secretory (basolateral→apical) vs absorptive (apical→basolateral) permeability (Caco-2 cell monolayers [1]) | Nontoxic concentration (Caco-2 cells; Caco-2 cells, MTT) [µM] | Papp (Caco-2 cell monolayers [2]) [×10⁻⁶ cm/s] | Papp at 120 min (in vitro) [×10⁻⁶ cm/s] | Nontoxic concentration (Caco-2 cells; human) [µM] | oral bioavailability [3] [%] | permeability class (Caco-2 cell monolayers [1]; from Papp level) | AUC0-t ([4]; Kindy, 10 mg/kg tail vein, mice, average) [µg·h/g] | time to maximum plasma concentration (Cmax) ([4]; mouse, in vivo) [min] | Tmax ([4]; mouse, in vivo, iv, 5 mg/kg) [min] | Tmax ([4]; mouse, in vivo, iv, 10 mg/kg, Tmax) [min] | half-life ([4]; mouse, in vivo, iv, Lung, 5 mg/kg tail vein, mice, average) [min] | Tmax ([4]; mouse, in vivo, time to peak concentration in different tissues) [min]
1 | O=c1c2cccc(O)c2nc2n1CCc1c-2[nH]c2ccccc12 [1-HRUP, 1-hydroxyrutaecarpine] | nearly comparable | 100 | ≥ 1 | – | – | – | – | – | – | – | – | – | –
2 | COc1ccc2c(OC)c3ccoc3nc2c1 [EVT, evolitrine] | nearly comparable | – | – | ~10 | 100 | – | – | – | – | – | – | – | –
3 | O=c1c2ccccc2nc2n1CCc1c-2[nH]c2ccccc12 [RUP, rutaecarpine] | more than twice as high in the secretory direction | – | – | ≥ 1 | 100 | – | – | – | – | – | – | – | –
4 | C[n+]1c2n(c(=O)c3ccccc31)CCc1c-2[nH]c2ccccc12 [dehydroevodiamine] | nearly comparable | – | – | 10 | 100 | 15.35 | high permeability | 1.87 | ≤ 15 | 45 | 15 | 107 | 15

— PMC10117637 (Frontiers in Pharmacology, 2023)
